According to PMC10135567, “New Indole-3-Propionic Acid and 5-Methoxy-Indole Carboxylic Acid Derived Hydrazone Hybrids as Multifunctional Neuroprotectors” (Antioxidants, 2023):

What was measured:
red blood cells = assay: Red blood cell hemolysis assay; assay type: cell-based, rat; conditions: positive control, 20% Triton X-100, 1 h, 37 °C
Method: The potential of the test compounds to induce hemolysis was evaluated following the protocol described by Evans et al.. The blood was collected from the heart of male Wister rats. The red blood cells were separated from the blood by repeated centrifugation in 0.9% NaCl buffer and were resuspended in phosphate-buffered saline (PBS, pH 7.4). The test compounds in concentrations 10, 100, and 200 µM, a negative control (distilled water), and a positive control (20% Triton X-100) were pipetted into 96-well plates. Then, the erythrocyte suspension in PBS was added, and the plates were incubated for 1 h at 37 °C. After centrifugation (5 min at 500× g), the supernatant was transferred to new 96-well plates in order to measure hemoglobin absorbance at 430 nm on a Synergy 2 plate-reader (BioTek Instruments, Inc., Highland Park, Winooski, VT, USA). The obtained results were presented as a percentage of hemolysis relative to the hemoglobin absorbance values in the positive controls. Hemoglobin absorbance of negative controls was accepted as zero hemolysis. […]
Hemolysis assay, using red blood cells, is an essential part of the in vitro biocompatibility testing of new drug substances; and it was used as a screening method for the evaluation of potential in vivo toxicity. The release of hemoglobin was a definite sign of the cell lysis of the erythrocytes and could be measured spectrophotometrically. […]

[1] = MTT cell viability assay (cytotoxicity), SH-SY5Y; conditions: human, SH-SY5Y neuroblastoma cells
Method: Neuroblastoma cell line SH-SY5Y (94030304) was acquired from the European Collection of Cell Cultures (ECACC, Salisbury, UK). Cells were cultured in a medium prepared with RPMI basic media supplemented with 10% heat-inactivated FBS (fetal bovine serum), 2 mM L-glutamine, 1% antibiotics (penicillin/streptomycin), and incubated at 37 °C in a humidified atmosphere containing 5% of CO2. The culture’s medium was replaced at a time interval of 2–3 days.
(§1) Cell viability was assessed via the mitochondrial reductase-dependent reaction of (3-(4,5-dimethylthiazol-2-yl)- 2,5-diphenyl tetrazolium bromide (MTT, cat. no. 475989, Calbiochem, Merck KGaA, Darmstadt, Germany). The SH-SY5Y and bEnd3 cell lines were seeded in 96-well plates at a density of 0.7 × 10^4 (bEnd3) or 2 × 10^4 (SH-SY5Y) cells/well and allowed to adhere for 24 h at 37 °C, 5% CO2. Then, the cells were incubated with the compounds (1–500 μM) for a preset time (24 h). For the solvent, the control cells were treated with DMSO corresponding to the highest concentration of DMSO in the samples (0.5% DMSO) in order to exclude its cytotoxic effect on the cells. For each concentration, a set of at least 6 wells were used. After incubation, the solution from each well was exchanged with fresh culture medium (100 µL/well), containing the MTT reagent (0.5 mg/mL) and incubated for 3 h at 37 °C in a humidified atmosphere and 5% CO2. The obtained formazan crystals were dissolved in 100 µL/well of 5% formic acid in propan-2-ol solution (or DMSO). The absorbance was measured at 570 nm via multiplate reader Tecan Infinite F200 PRO (Tecan Trading AG., Männedorf, Switzerland) or Synergy 2 (BioTek Instruments, Inc., Highland Park, Winooski, VT, USA).
(§2) Both the SH-SY5Y and bEnd3 cells were treated with the test compounds in a concentration range from 1 to 500 µM for 24 h.

[2] = tested on: isolated rat-brain synaptosomes; assay: Synaptosomal viability (MTT), substances administered alone; conditions: 100 µM
Method: Preparation of the synaptosomes was carried out by multiple centrifugations using the Percoll gradient. Homogenization of the brains was performed in 10 volumes of cold buffer 1, which contained 5 mM HEPES and 0.32 M sucrose (pH = 7.4), followed by centrifugation at different speeds. For preparation of the gradient, the synaptosomes were isolated by Percoll reagent. Synaptosomes were resuspended and incubated in buffer 2, which contained 290 mM NaCl, 0.95 mM MgCl2x6H2O, 10 mM KCl, 2.4 mM CaCl2xH2O, 2.1 mM NaH2PO4, 44 mM HEPES, and 13 mM D-glucose. Incubations were performed in a 5% CO2 + 95% O2 atmosphere. The method of Lowry et al., using bovine serum albumin as a standard content, was applied for determination of synaptosomal protein [51].
Synaptosomal viability was monitored based on a (3-(4,5)-dimethylthiazol-2-yl)-2,5-diphenyl tetrazolium bromide) assay. After incubation with the compounds, synaptosomes were treated with 0.5 mg/mL solution of (3-(4,5)-dimethylthiazol-2-yl)-2,5-diphenyl tetrazolium bromide) for 10 min at […]. Then, the synaptosomes were centrifuged twice at 15,000× g for 1 min. The resulting formazan crystals were dissolved in DMSO (dimethyl sulfoxide), and the extinction was determined by spectrophotometric measurements at 580–660 nm. […]

[3] = tested on: isolated rat-brain synaptosomes; assay: 6-OHDA-induced neurotoxicity in isolated rat synaptosomes, synaptosomal viability; assay type: cell-based; conditions: Rattus norvegicus; 10 µM pre-incubation 30 min, then 150 µM 6-OHDA 1 h; read-out: synaptosomal viability (SV) preserved, as compared to 6-OHDA
Method: (§3) This neurotoxicity model was based on the metabolism and auto-oxidation of 6-hydroxy dopamine responsible for the reactive oxygen species and quinones generation, ultimately leading to neurotoxicity and neurodegeneration. The experiment was performed by pre-incubation of the synaptosomes with 10 µM of the compounds for 30 min, followed by the addition of 150 µM 6-hydroxy dopamine for induction of neurotoxicity. After 1 h, they were centrifuged twice for 1 min at 15,000 × g. After the second wash, the precipitates were resolved with buffer B and glucose.

[4] = tested on: isolated rat-brain synaptosomes; assay: 6-OHDA-induced neurotoxicity in isolated rat synaptosomes, GSH level; assay type: cell-based; conditions: 10 µM pre-incubation 30 min, then 150 µM 6-OHDA 1 h
Method: as §3

[5] = Fe(II)-induced lipid peroxidation assay (LP assay, TBARS); assay type: biochemical; conditions: 90 µM, lecithin 1 mg/mL, 0.1 mM FeCl2; lower = stronger antioxidant
Method: (§4) The lipid peroxidation assay and a modification of the deoxyribose-degradation assay were used. Two types of measurement compositions in phosphate buffer (PB–K2HPO4/KH2PO4, pH 7.4) were prepared for both tests: (i) samples, containing the biologically relevant molecules (lecithin emulsion or deoxyribose), iron, and the tested hydrazones at the concentrations indicated below the figures; and (ii) controls, in which the tested hydrazones were omitted. The data for the sample activity were presented as a percentage of the control measurement.
The thiobarbituric-acid reactive-substance colorimetric test was performed in a model system of Fe(II)-induced lipid peroxidation as an emulsion prepared from egg yolk phospholipids. Each sample contained 1 mg/mL of lecithin. LP was initiated using 0.1 mM FeCl2. After 30 min incubation at 37 °C, 0.5 mL of 2.8% trichloroacetic acid solution and 0.5 mL of 0.5% thiobarbituric acid solution were added, following a second incubation at 100 °C for 20 min. Centrifugation at 3000 rpm for 20 min at 4 °C was performed, and we determined the absorbance value of the supernatant at 532 nm via Shimadzu UV-1601 UV-VIS spectrophotometer.

[6] = O-phenanthroline Fe(II) chelation test; assay type: physicochemical; conditions: 200 µM compound, FeCl2
Method: The Fe (II)-chelating activity of the tested hydrazones was determined by the O-phenanthroline method. A total of 1 mL sample solutions of 50 mM PB pH 7 contained 0.2 mM O-phenanthroline and 0.05 mM FeCl2 and 0.2 mM hydrazone. In the controls, the tested compounds were omitted. Absorbance was measured at 515 nm via GENESYS 50 UV-VIS spectrophotometer after incubation for 5 min at 37 °C. The data for the sample activity were presented as a percentage of the control measurement. Absorbance spectra of all the samples, the control, and the measurement compositions containing the tested hydrazones and Fe(II) at the concentrations used in the samples were measured.
To explain the results of both systems of Fe(II)-induced oxidative damage, we studied the potency of the tested compounds to chelate-iron (Fe(II)). This was studied by spectrophotometric determination of free iron (Fe(II)) using the ortho-phenanthroline test, as 1,10-phenantroline reacts rapidly with Fe(II) ions in weakly acidic media, generating an orange–red complex (ferroin) with characteristic absorbance spectra (molar absorptivity 1.10.104 (α = 0.20) at ~max 512 nm and a molar ratio 3:1 (R: Fe(II))). The generated complex was stable, and the bound Fe(II) was resistant to oxidation. Lower absorbance of the reaction mixture indicated higher Fe^2+-chelating activity.

[7] = Superoxide radical scavenging, xanthine/xanthine oxidase/NBT system; assay type: biochemical
Method: The 1 mL cuvette for the control contained 1 mM xanthine, 20 µL xanthine oxidase (100 IU/L), and 0.04 mM NBT [43, 44]. In the sample compositions, the tested hydrazones at different concentrations were added. All measurement compositions were incubated at 37 °C, and the absorbance was determined spectrophotometrically at 560 nm via Shimadzu UV-1601 UV-vis spectrophotometer.
The potential capability of the investigated compounds to prevent the superoxide-anion radical-induced NBT reduction was investigated spectrophotometrically by xanthine-oxidase assay. The assay was carried out at the final concentration of the tested compounds, at 1, 10, 50, and 100 µM.

[8] = biological target: T1, recombinant human MAO-B (hMAO-B) (Homo sapiens, UniProt P27338); assay: hMAO-B enzyme activity inhibition (Amplex Red fluorimetric assay); assay type: biochemical; conditions: 1 µM
T1 sequence (P27338 1-520): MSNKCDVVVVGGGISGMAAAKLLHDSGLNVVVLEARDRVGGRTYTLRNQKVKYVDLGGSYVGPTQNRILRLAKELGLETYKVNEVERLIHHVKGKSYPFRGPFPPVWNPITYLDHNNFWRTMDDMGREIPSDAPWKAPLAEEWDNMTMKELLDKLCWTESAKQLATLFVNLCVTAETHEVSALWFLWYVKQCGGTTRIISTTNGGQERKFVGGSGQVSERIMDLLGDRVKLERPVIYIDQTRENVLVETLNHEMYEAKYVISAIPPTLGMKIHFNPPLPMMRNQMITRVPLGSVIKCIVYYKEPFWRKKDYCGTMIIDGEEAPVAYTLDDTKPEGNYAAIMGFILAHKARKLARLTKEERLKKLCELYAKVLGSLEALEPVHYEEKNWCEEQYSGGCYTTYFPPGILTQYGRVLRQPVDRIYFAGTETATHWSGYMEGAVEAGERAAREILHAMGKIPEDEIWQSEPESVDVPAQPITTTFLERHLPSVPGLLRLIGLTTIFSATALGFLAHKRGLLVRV
Method: Amplex® UltraRed reagent [48] was used for detection of the hydrogen peroxide and peroxidase activity in biological samples and enzymes. In the presence of peroxidase, a red phosphorescent oxidation product, resorufin, was produced due to the 1:1 stoichiometric reaction of Amplex® Red with hydrogen peroxide. The analysis was conducted spectrophotometrically based on the high extinction coefficient of the color product. Using this method, small amounts of hydrogen peroxide (of the order of 10 pM in a volume of 100 µL) could be detected.
The following controls were used: pure MAO-B working solution in reaction buffer, MAO-B working solution containing hydrogen peroxide, and pure reaction buffer. The final concentration of the substances was 1 µM. […] At the end of the incubation period, the reaction was started by adding a 50 µL of a mix solution containing solutions of Amplex® Red reagent, horseradish peroxidase (HRP), and tyramine as a substrate for the enzyme in a reaction buffer, to each well on the 96-well plate.

[9] = MTT cell viability assay (cytotoxicity), bEnd3; assay type: cell-based, mouse; conditions: mouse, bEnd3 brain endothelial cells, 1–500 µM
Method: Mouse-brain endothelial cell line bEnd3 [36] (CRL-2299) was purchased from the American Type Culture Collection (ATCC, Manassas, VA, USA). The cells were cultured in DMEM (Dulbeco’s modified essential medium) (cat. no. 30-2002, ATCC, Manassas, VA, USA), supplemented with 10% heat-inactivated FBS (cat. no. F7524, Sigma-Aldrich Co. LLC, St. Louis, MO, USA), 1 mM L-glutamine (cat. no. G7513, Sigma-Aldrich Co. LLC, St. Louis, MO, USA) and 1× Antibiotic-Antimycotic solution (penicillin: streptomycin: amphotericin B (100 U/mL: 0.10 mg/mL: 0.25 µg/mL) (cat. no. A5955, Sigma-Aldrich Co. LLC, St. Louis, MO, USA) at 37 °C in a humidified atmosphere containing 5% CO2. The cells were passaged in 75 cm^2 flasks every 3–5 days via trypsinization (StableCell Trypsin solution, cat. no. T2610, Sigma-Aldrich Co. LLC, St. Louis, MO, USA).
as §1, §2

[10] = Fe(II)-induced deoxyribose degradation assay; assay type: biochemical; conditions: 80 µM, 2-deoxyribose 0.5 mM, 0.1 mM FeCl2; lower = stronger antioxidant
Method: as §4
The deoxyribose (0.5 mM) damage was induced by adding FeCl2 (0.1 mM). The measurement compositions were incubated at 37 °C for 30 min. The next step comprised adding 0.5 mL of 2.8% trichloroacetic acid and 0.5 mL of thiobarbituric acid. Then, the samples were heated in boiling water for 20 min, and their absorbance was estimated at 532 nm (characteristic band for the generated chromophore) via Shimadzu UV-1601 UV-vis spectrophotometer.

[11] = Stability by UV-vis measurements at different pH; assay type: physicochemical; conditions: 50 µM, pH 2, 4.5, 7.4 and 8.4, after 1, 2, 3 and 24 h
Method: The stability of the compounds was also considered a potential issue. Therefore, selected compounds (3a, 3d, 5d, and 5e at a concentration of 50 µM) were studied by UV-vis measurements under different pH conditions, including pH 2, 4.5, 7.4, and 8.4, to represent different physiological (gastric, intestinal, etc.) conditions.

Molecule	hemolysis (red blood cells) [%]	IC50 at 24 h [1] [µM]	reduction of synaptosomal viability (SV) vs. non-treated synaptosomes [2] [%]	viability at 10 µM [3] [%]	GSH level preserved, as compared to 6-OHDA [4] [%]	absorbance ratio sample/control (lipid peroxidation) [5]	absorbance at 515 nm compared to the controls (Fe(II) chelation) [6]	absorbance ratio (NBT reduction, % of control) ([7]; 1, 10, 50 and 100 µM)	reduction of hMAO-B enzyme activity vs. pure hMAO-B [8] [%]	IC50 at 24 h [9] [µM]	absorbance ratio, % of the controls (deoxyribose degradation) [10]	decrease of NBT reduction as compared to the controls ([7]; 100 µM (highest tested concentration))	stability (UV-vis spectra over time) [11]	melting point [°C]
Triton X-100	100													
O=C(O)CCc1c[nH]c2ccccc12 [IPA, Indole-3-propionic acid]		> 500	47	56	50	further amelioration of the antioxidant properties was not observed, as compared to melatonin	statistically identical absorbance values at 515 nm, as compared to the controls	did not influence the estimated absorbance ratio at any of the tested concentrations	25					
O=C(CCc1c[nH]c2ccccc12)NN=Cc1cccc(O)c1O [Compound 3a, N′-(2,3-Dihydroxybenzylidene)-3-(1H-indol-3-yl)propanehydrazide]		120		44		around 30%	identical absorbance values, as compared to the controls			356	around 35%	less than 15%	stable over time	204 to 205
